Earlier results, collected in publication PMC3906704 (Journal of molecular biochemistry, 2012).

Details: substitution of Gly6 in GnRH-I; ref Karten & Rivier 1986

L-Ala^6: GnRH analog with L-Ala^6 substitution (QHWSYALRPG; Gonadoliberin-1; UniProt P01148 24-33, looked up, variant G6A)
Potency relative to native GnRH-I: 4%
